Measurements: patent US20230174584A1, “Antibiotic Compounds” (priority 2019, published 2023)
Values after ≈ are worked out from the molar mass of the structure shown.

Experiments:
[1] = tested on: panel of 31 vancomycin-resistant E. faecium strains; experiment: MIC assay, MIC50/MIC90 over panel; type: cell-based, Enterococcus faecium
Method: (§1) The antibacterial activity of the compounds was tested against a panel of bacteria, including Gram-positive bacteria (S. aureus ATCC29213, S. aureus USA300, S. aureus LIM-2, NR-45881, S. aureus HIP13419, NR-46413, E. faecium E155, E. faecium E7314, E. faecium E980, E. faecalis E1246, E. faecalis E7406 and S. pneumonia 153). The antibacterial activity of the compounds was further tested against S. aureus NY-155, NR-46236, S. aureus HIP12864, NR-46074, S. aureus 880 (BR-VRSA), NR-49120, E. faecalis E1246, E. faecalis E7604, as well as some Gram-negative bacteria (Escherichia coli and Klebsiella pneumoniae). Minimum inhibitory concentrations (MICs) in μg/mL were performed according to the CLSI guidelines. From glycerol stocks, bacterial strains were cultured on blood agar plates and incubated at 37° C. for 18 h. A single colony was transferred to tryptic soy broth (TSB) with 0.002% polysorbate 80 (p80). For the Enterococcus, VISA and VRSA strains, the cultures were grown at 37° C. until the optical density of the suspension reached a level equivalent to the 0.5 McFarland standard. The bacterial suspensions were diluted in TSB with 0.002% p80 to reach a bacterial cell density of 10^6 CFU/mL. In case of the other (vancomycin-sensitive) S. aureus strains, the direct colony suspension method was used. For these strains, after transfer of the colonies to TSB with 0.002% p80, they were immediately diluted to 10^6 CFU/mL, instead of incubated prior to this dilution. In the case of S. pneumonia, direct colony suspension was used by immediately suspending multiple colonies from fresh blood agar plates in TSB+0.002% p80 to an OD600 of 0.5 and subsequent dilution to 10^6 CFU mL^−1 in TSB+0.002% p80+5% lysed horse blood. Antibiotic dilutions for this strains were also made in TSB+0.002% p80+5% lysed horse blood. Both agar and microplates containing S. pneumonia were incubated at 37° C. with 5% CO2 for 24 h with constant shaking (600 rpm). […] The cultures were grown to exponential phase (OD600=0.5) at 37° C. […] In polypropylene 96-well microtiter plates, test compounds were added in biological triplicates and serial diluted 2-fold by transfer and mixing from one well to the next to achieve a final volume of 50 μL per well. An equal volume of bacterial suspension (10^6 CFU mL^−1) was added to the wells. The plates were sealed with breathable membranes and incubated at 37° C. for 24 h with constant shaking (600 rpm). In polypropylene microtiter plates, 100 μL of the test compounds was added to the first row in biological triplicates, and 50 μL of media was added to the other wells. The compounds were subjected to serial dilution by transfer and mixing of 50 μL from one well to the next. Subsequently, 50 μL of bacterial suspension (10^6 CFU/mL) was added to the wells. The plates were sealed with breathable membranes and incubated at 37° C. for 24 h with constant shaking (600 rpm). Positive growth control consisted of wells with bacterial suspension and without antibiotic. Negative growth control consisted of solely media without bacterial suspension or antibiotic. The MICs were determined from the median of a minimum of triplicates.

[2] = tested on: S. aureus HIP13419, NR-46413; experiment: microbe, parasite or virus in culture; type: cell-based, Staphylococcus aureus
Method: as §1

S. aureus USA300 = experiment: microbe, parasite or virus in culture; type: cell-based, Staphylococcus aureus
Method: as §1

E. faecium E1441 = experiment: MIC assay; type: cell-based, Enterococcus faecium
E. faecium E1130 = experiment: MIC assay; type: cell-based, Enterococcus faecium
Method in brief: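 MICs (μg/mL) were read after 24 h incubation at 37 °C and taken as the median of at least three replicates. Compounds were serially diluted twofold in TSB containing 0.002% polysorbate 80 and inoculated with an equal volume of bacteria at 10^6 CFU/mL.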

[3] = tested on: S. aureus NY-155, NR-46236; experiment: MIC assay; type: cell-based, Staphylococcus aureus
Method: as §1

S. aureus ATCC29213 = experiment: MIC assay; type: cell-based, Staphylococcus aureus
Method: as §1

[4] = tested on: S. aureus LIM-2, NR-25881; experiment: MIC assay; type: cell-based, Staphylococcus aureus
Method: as §1

[5] = tested on: S. aureus 880 (BR-VRSA), NR-49120; experiment: MIC assay; type: cell-based, Staphylococcus aureus
Method: as §1

[6] = tested on: S. aureus HIP12864, NR-46074; experiment: MIC assay; type: cell-based, Staphylococcus aureus
Method: as §1

MRSA USA300 = experiment: MIC assay in the presence of sheep serum; type: cell-based, Staphylococcus aureus; conditions: MRSA USA300, TSB + 0.002% p80 + 50% sheep serum
Method: as §1
The activity of the compounds was further assessed against MRSA USA300 strain in the presence of sheep) serum in another MIC assay. The cultures that grew in the presence of serum used TSB+0.002% P80+50% sheep serum as growth media, as opposed to normal MICs done in only TSB+0.002% P80.

E. faecium E0338 = experiment: MIC assay; type: cell-based, Enterococcus faecium
E. faecalis E7604 = experiment: microbe, parasite or virus in culture; type: cell-based, Enterococcus faecalis
Method: as §1

E. faecalis E7406 = experiment: microbe, parasite or virus in culture; type: cell-based, Enterococcus faecalis
Method: as §1

E. faecium E7314 = experiment: microbe, parasite or virus in culture; type: cell-based, Enterococcus faecium
Method: as §1

E. faecium E155 = experiment: microbe, parasite or virus in culture; type: cell-based, Enterococcus faecium
Method: as §1

VRS2 = experiment: MIC assay, VISA and VRSA panel; type: cell-based, Staphylococcus aureus; conditions: Staphylococcus aureus
Method: as §1

[7] = panel of 31 vancomycin-resistant E. faecium strains
[8] = Staphylococcus aureus, MRSA / USA300
[9] = Staphylococcus aureus, ATCC 29213 / MSSA

CN[C@H](CC(C)C)C(=O)N[C@H]1C(=O)N[C@@H](CC(N)=O)C(=O)N[C@H]2C(=O)N[C@H]3C(=O)N[C@H](C(=O)N[C@H](C(=O)O)c4cc(O)cc(O)c4-c4cc3ccc4O)[C@H](O)c3ccc(c(Cl)c3)Oc3cc2cc(c3O[C@@H]2O[C@H](CO)[C@@H](O)[C@H](O)[C@H]2O[C@H]2C[C@](C)(NCc3ccc(N=C(N)NC/C=C(\C)CCC=C(C)C)cc3)[C@H](O)[C@H](C)O2)Oc2ccc(cc2Cl)[C@H]1O [Compound 14]
MIC50 [1, 7]: 1 µg/mL (≈ 0.577 µM)
MIC90 [1, 7]: 8 µg/mL (≈ 4.62 µM)
MIC ([2]; S. aureus HIP13419, NR-46413 VRSA): 0.063 µg/mL (≈ 0.0364 µM)
MIC (S. aureus USA300; MRSA USA300, TSB + 0.002% p80): 0.031 µg/mL
MIC (S. aureus USA300; S. aureus USA300 MRSA): 0.03125 µg/mL (≈ 0.018 µM)
MIC (E. faecium E1441; E. faecium E1441, VanA): 4 µg/mL (≈ 2.31 µM)
MIC (E. faecium E1130; E. faecium E1130, VanA): ≤0.008 µg/mL
MIC ([3]; S. aureus NY-155, NR-46236 MRSA): ≤0.008 µg/mL
MIC (S. aureus ATCC29213; S. aureus ATCC29213 MSSA): ≤0.007812 µg/mL
MIC ([4]; S. aureus LIM-2, NR-25881 VISA): ≤0.008 µg/mL
MIC ([5]; S. aureus 880, NR-49120 VRSA): 1 µg/mL (≈ 0.577 µM)
MIC ([6]; S. aureus HIP12864, NR-46074 VISA): 0.031 µg/mL (≈ 0.0179 µM)
MIC (MRSA USA300): 0.063 µg/mL
MIC (E. faecium E0338; E. faecium E0338, VanA): 4 µg/mL (≈ 2.31 µM)
MIC (E. faecalis E7604; E. faecalis E7604 VRE (vanB)): ≤0.008 µg/mL
MIC (E. faecalis E7406; E. faecalis E7406 VRE (VanB)): ≤0.007812 µg/mL
MIC (E. faecium E7314; E. faecium E7314, VanB (Table 10)): ≤0.008 µg/mL
MIC (E. faecium E7314; E. faecium E7314 VRE (VanB)): ≤0.007812 µg/mL
MIC (E. faecium E155; E. faecium E155, VanA (Table 10)): 1 µg/mL (≈ 0.577 µM)
MIC (E. faecium E155; E. faecium E155 VRE (VanA)): 1 µg/mL (≈ 0.577 µM)

CN[C@H](CC(C)C)C(=O)N[C@H]1C(=O)N[C@@H](CC(N)=O)C(=O)N[C@H]2C(=O)N[C@H]3C(=O)N[C@H](C(=O)N[C@H](C(=O)O)c4cc(O)cc(O)c4-c4cc3ccc4O)[C@H](O[C@H]3C[C@](C)(N)[C@@H](O)[C@H](C)O3)c3ccc(c(Cl)c3)Oc3cc2cc(c3O[C@@H]2O[C@H](CO)[C@@H](O)[C@H](O)[C@H]2O[C@H]2C[C@](C)(NCc3ccc(-c4ccc(Cl)cc4)cc3)[C@@H](O)[C@H](C)O2)Oc2ccc(cc2Cl)[C@H]1O [Oritavancin]
MIC ([2]; Staphylococcus aureus, VRSA): 0.25 µg/mL (≈ 0.139 µM)
MIC (S. aureus USA300; [8]): 0.0625 µg/mL (≈ 0.0349 µM)
MIC ([3]; Staphylococcus aureus, MRSA): 0.25 µg/mL (≈ 0.139 µM)
MIC (S. aureus ATCC29213; [9]): 0.25 µg/mL (≈ 0.139 µM)
MIC ([4]; Staphylococcus aureus, VISA): 1 µg/mL (≈ 0.558 µM)
MIC ([5]; Staphylococcus aureus, VRSA): 0.25 µg/mL (≈ 0.139 µM)
MIC ([5]; strain BR-VRSA): 0.25 µg/mL (≈ 0.139 µM)
MIC ([6]; Staphylococcus aureus, VISA): 4 µg/mL (≈ 2.23 µM)
MIC (E. faecalis E7604; Enterococcus faecalis, VRE): 0.063 µg/mL (≈ 0.0351 µM)
MIC (E. faecalis E7406; Enterococcus faecalis, VRE): 0.0625 µg/mL (≈ 0.0349 µM)
MIC (VRS2): 0.25 µg/mL (≈ 0.139 µM)
MIC (E. faecium E7314; Enterococcus faecium, VRE): 0.125 µg/mL (≈ 0.0697 µM)
MIC (E. faecium E155; Enterococcus faecium, VRE): 0.5 µg/mL (≈ 0.279 µM)

CCCCCCCCCCNCCN[C@@]1(C)C[C@H](O[C@H]2[C@H](Oc3c4cc5cc3Oc3ccc(cc3Cl)[C@@H](O)[C@@H](NC(=O)[C@@H](CC(C)C)NC)C(=O)N[C@@H](CC(N)=O)C(=O)N[C@H]5C(=O)N[C@H]3C(=O)N[C@H](C(=O)N[C@H](C(=O)O)c5cc(O)c(CNCP(=O)(O)O)c(O)c5-c5cc3ccc5O)[C@H](O)c3ccc(c(Cl)c3)O4)O[C@H](CO)[C@@H](O)[C@@H]2O)O[C@@H](C)[C@H]1O [Telavancin, reference compound]
MIC50 ([1]; Enterococcus faecium): 4 µg/mL (≈ 2.28 µM)
MIC90 ([1]; Enterococcus faecium): 8 µg/mL (≈ 4.56 µM)
MIC ([2]; Staphylococcus aureus, VRSA): 4 µg/mL (≈ 2.28 µM)
MIC (S. aureus USA300; [8]): 0.125 µg/mL (≈ 0.0712 µM)
MIC (E. faecium E1441; Enterococcus faecium, E1441): 8 µg/mL (≈ 4.56 µM)
MIC (E. faecium E1130; Enterococcus faecium, E1130): ≤ 0.008 µg/mL
MIC ([3]; Staphylococcus aureus, MRSA): 0.031 µg/mL (≈ 0.0177 µM)
MIC (S. aureus ATCC29213; [9]): 0.125 µg/mL (≈ 0.0712 µM)
MIC ([4]; Staphylococcus aureus, VISA): 0.25 µg/mL (≈ 0.142 µM)
MIC ([5]; Staphylococcus aureus, VRSA): 8 µg/mL (≈ 4.56 µM)
MIC ([5]; strain BR-VRSA): 8 µg/mL (≈ 4.56 µM)
MIC ([6]; Staphylococcus aureus, VISA): 0.25 µg/mL (≈ 0.142 µM)
MIC (E. faecium E0338; Enterococcus faecium, E0338): 8 µg/mL (≈ 4.56 µM)
MIC (E. faecalis E7604; Enterococcus faecalis, VRE): 0.063 µg/mL (≈ 0.0359 µM)
MIC (E. faecalis E7406; Enterococcus faecalis, VRE): 0.0625 µg/mL (≈ 0.0356 µM)
MIC (VRS2): 2 µg/mL (≈ 1.14 µM)
MIC (E. faecium E7314; Enterococcus faecium, E7314): ≤ 0.008 µg/mL
MIC (E. faecium E7314; Enterococcus faecium, VRE): ≤ 0.00781 µg/mL
MIC (E. faecium E155; Enterococcus faecium, E155): 4 µg/mL (≈ 2.28 µM)
MIC (E. faecium E155; Enterococcus faecium, VRE): 4 µg/mL (≈ 2.28 µM)
